# Results from ChEMBL document CHEMBL4811263, “Tulipiferamide A, an Alkamide from Liriodendron tulipifera, Exhibits an Anti-Inflammatory Effect via Targeting IKKβ Phosphorylation” (J Nat Prod, 2021).
# Legend:
# RAW264.7 = experiment: Antiinflammatory activity in mouse RAW264.7 assessed as inhibition of LPS-induced NO production preincubated for 30 mins followed by LPS stimulation measured after 24 hrs by Griess reagent based assay; type: functional, cell-based
# [1] = Inhibition of LPS-indued NF-kappaB activation in mouse RAW264.7 cells preincubated for 30 mins followed by LPS stimulation and measured after 10 hrs by luciferase assay; type: cell-based
Structure (SMILES),IC50 (RAW264.7) [µM],IC50 [1] [µM]
C=CCc1cc(OC)c(O[C@H](C)Cc2cc(OC)c3c(c2)OCO3)c(OC)c1,> 50,
O=C(NCCc1ccccc1)c1ccccc1,> 50,
COc1c2c(c3c4c(nccc14)C(=O)c1ccccc1-3)OCO2,> 50,
NC(=O)Nc1sc(-c2ccc(F)cc2)cc1C(N)=O,,0.022
C=C1C(=O)O[C@@H]2/C=C(\C)CC/C=C(\C)C[C@@H](OC(C)=O)[C@@H]12,19.8,
O=Cc1ccc(O)cc1 [4-HYDROXYBENZALDEHYDE],> 50,
COc1c2c3c(c(OC)c1OC)-c1ccccc1C[C@H]3N(C(C)=O)CC2,14,24.5
CC(=O)N(C)CCc1ccccc1,> 50,
COc1cc(C(=O)C2CO[C@H](c3cc(OC)c(O)c(OC)c3)[C@H]2CO)cc(OC)c1O (stereo not given in full),> 50,

# The next lines start with the values.
IC50 (RAW264.7) [µM],IC50 [1] [µM],Structure (SMILES)
34.2,28.5,COc1c(OC)c2c3c(nccc3c1OC)C(=O)c1cc3c(cc1-2)OCO3 [OXOPHOEBINE]
> 50,,C=C1C(=O)O[C@@H]2/C=C(\C)CC/C=C(\C)CC[C@@H]12 [COSTUNOLIDE]
> 50,,COc1cc(/C=C/C(=O)NCCc2ccc(O)cc2)ccc1O [N-TRANS-FERULOYL TYRAMINE]
> 50,,COc1cc([C@H]2Oc3c(OC)cc(CCCO)cc3[C@@H]2CO)ccc1O [DIHYDRODEHYDRODICONIFERY ALCOHOL]
> 50,,COc1c(OC)c2c3c(nccc3c1OC)C(=O)c1ccccc1-2 [HOMOMOSCHATOLINE]
> 50,,COc1cc([C@H]2OC[C@H]3[C@@H]2CO[C@@H]3c2cc(OC)c(O)c(OC)c2)cc(OC)c1O [SYRINGARESINOL]
> 50,,COc1cc(C[C@H]2CO[C@H](c3ccc(O)c(OC)c3)[C@H]2CO)ccc1O [LARICIRESINOL]
> 50,,C=CCc1cc(OC)c(O)c(OC)c1 [METHOXYEUGENOL]
> 50,,COc1cc(C=O)ccc1O [VANILLIN]
